Results reported in the Kinase Knowledgebase extract (Sharma et al. 2016).
“And” between values parts separate entries of the source, which are not always exact repeats. Equal entries are not always repeated. Values belong to the compound of their own block, whether it stands above or below them.

Key:
EGFR (human) [1] = biological target: EGFR (human) (UniProt P00533); details: a431
MAPK14 (human) [2] = biological target: MAPK14 (human) (UniProt Q16539); test: MIP-1 alpha Assay (T cells)
MAPK14 (human) [3] = biological target: MAPK14 (human) (UniProt Q16539); test: MIP-1 Beta Assay (T cells)
EGFR [4] = biological target: EGFR (UniProt P00533)
EGFR [5] = biological target: EGFR (UniProt P00533); remark: listed apart in the source
MAPK14 (human) [6] = biological target: MAPK14 (human) (UniProt Q16539); test: Activation of p38 in Human Platelets
[7] = test system: MAPK14 (sprague-dawley rat); test: Effect of the p38 Inhibitor on IL-1beta Level following Air Inflammatory Response; details: dose or concentration not given here
[8] = test system: MAPK14 (sprague-dawley rat); test: Effect of the p38 Inhibitor on TNF-alpha Level following Air Inflammatory Response; details: dose or concentration not given here
EGFR [9] = biological target: EGFR (UniProt P00533); remark: listed apart in the source
EGFR [10] = biological target: EGFR (UniProt P00533); remark: listed apart in the source
EGFR [11] = biological target: EGFR (UniProt P00533); remark: listed apart in the source
EGFR (human) [12] = biological target: EGFR (human) (UniProt P00533); details: a431; remark: listed apart in the source
EGFR (human) [13] = biological target: EGFR (human) (UniProt P00533); details: A431
CDK2 = CDK2 (UniProt P24941); test: Enzyme Assay; details: concentration not given here
MAPK14 (rat) = test: MAPK Inhibiton (TNF Stimulated); details: iec-6, dose or concentration not given here
MAPK14 [14] = biological target: MAPK14 (UniProt Q16539); test: MAPK Inhibition
MAPK14 [15] = biological target: MAPK14 (UniProt Q16539); test: Inhibition of MAPK Activity
EGFR [16] = biological target: EGFR (UniProt P00533); remark: listed apart in the source
[17] = test system: CDK2 (sprague-dawley rat); details: dose or concentration not given here
EGFR (human) [18] = biological target: EGFR (human) (UniProt P00533); details: a431; remark: listed apart in the source
EGFR [19] = biological target: EGFR (UniProt P00533); details: concentration not given here
MAPK14 (murine) [20] = test: p38 Kinase Inhibition (MAPKAPK2 / L1210/VCR Cells); details: dose or concentration not given here
MAPK14 (murine) [21] = test: p38 Kinase Inhibition (ATF-2 / L1210/VCR Cells); details: dose or concentration not given here
EGFR [22] = biological target: EGFR (UniProt P00533); remark: listed apart in the source
EGFR (human) [23] = biological target: EGFR (human) (UniProt P00533); details: A431; remark: listed apart in the source
MAPK14 (human) [24] = biological target: MAPK14 (human) (UniProt Q16539); test: IL-6 Inhibition; details: hiv-1
EGFR [25] = biological target: EGFR (UniProt P00533); remark: listed apart in the source
EGFR [26] = biological target: EGFR (UniProt P00533); remark: listed apart in the source
EGFR (human) [27] = biological target: EGFR (human) (UniProt P00533); details: mda-mb-468
EGFR (murine) = EGFR (murine) (UniProt P00533); details: balb/mk cells
EGFR [28] = biological target: EGFR (UniProt P00533); remark: listed apart in the source

Sequence of MAPK14 (human) (Q16539 whole entry, looked up): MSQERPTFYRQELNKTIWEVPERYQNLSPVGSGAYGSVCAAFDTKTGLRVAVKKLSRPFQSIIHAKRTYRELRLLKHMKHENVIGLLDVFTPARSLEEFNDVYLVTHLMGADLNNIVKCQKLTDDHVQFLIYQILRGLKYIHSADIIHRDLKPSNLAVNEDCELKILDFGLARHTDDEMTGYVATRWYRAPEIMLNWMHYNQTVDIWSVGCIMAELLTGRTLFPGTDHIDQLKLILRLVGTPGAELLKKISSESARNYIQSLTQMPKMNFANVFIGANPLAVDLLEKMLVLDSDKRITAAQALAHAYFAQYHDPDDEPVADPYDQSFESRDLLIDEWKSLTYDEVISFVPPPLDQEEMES
Sequence of EGFR (human) (P00533 whole entry, looked up): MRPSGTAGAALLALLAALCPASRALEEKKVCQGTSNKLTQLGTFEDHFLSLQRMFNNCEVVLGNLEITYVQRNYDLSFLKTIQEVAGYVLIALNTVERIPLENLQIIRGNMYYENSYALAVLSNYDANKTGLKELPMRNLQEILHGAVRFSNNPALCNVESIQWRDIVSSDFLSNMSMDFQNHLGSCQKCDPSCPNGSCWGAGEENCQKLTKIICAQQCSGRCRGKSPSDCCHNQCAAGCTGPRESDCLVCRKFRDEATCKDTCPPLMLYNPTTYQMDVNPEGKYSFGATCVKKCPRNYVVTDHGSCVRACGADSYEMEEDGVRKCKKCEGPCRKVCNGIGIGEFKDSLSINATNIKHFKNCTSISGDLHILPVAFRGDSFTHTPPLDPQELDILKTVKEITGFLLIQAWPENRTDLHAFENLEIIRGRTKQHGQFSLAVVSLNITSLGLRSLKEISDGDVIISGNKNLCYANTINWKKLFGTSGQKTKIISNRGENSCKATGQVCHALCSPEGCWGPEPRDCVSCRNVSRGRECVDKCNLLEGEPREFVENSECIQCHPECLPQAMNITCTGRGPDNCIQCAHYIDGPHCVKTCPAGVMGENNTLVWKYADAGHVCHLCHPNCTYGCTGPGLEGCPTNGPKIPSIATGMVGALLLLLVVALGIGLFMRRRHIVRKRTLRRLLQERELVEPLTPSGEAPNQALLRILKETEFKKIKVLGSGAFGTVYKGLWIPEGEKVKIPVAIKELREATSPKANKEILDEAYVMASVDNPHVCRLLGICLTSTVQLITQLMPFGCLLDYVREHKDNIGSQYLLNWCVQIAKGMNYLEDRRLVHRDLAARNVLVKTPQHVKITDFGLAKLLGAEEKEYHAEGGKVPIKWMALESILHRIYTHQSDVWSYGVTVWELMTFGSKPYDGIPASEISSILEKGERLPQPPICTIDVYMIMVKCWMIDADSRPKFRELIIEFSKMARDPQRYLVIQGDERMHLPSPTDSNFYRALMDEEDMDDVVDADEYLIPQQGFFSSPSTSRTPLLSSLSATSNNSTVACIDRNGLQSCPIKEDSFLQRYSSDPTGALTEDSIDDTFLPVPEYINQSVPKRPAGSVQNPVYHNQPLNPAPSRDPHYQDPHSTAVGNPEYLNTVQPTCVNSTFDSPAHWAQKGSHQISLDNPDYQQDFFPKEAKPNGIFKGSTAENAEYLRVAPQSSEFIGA
Sequence of EGFR (P00533 whole entry, looked up): as above
Sequence of MAPK14 (Q16539 whole entry, looked up): as the sequence (Q16539 whole entry, looked up) above
Sequence of EGFR (murine) (P00533 whole entry, looked up): as the sequence (P00533 whole entry, looked up) above

Structure (SMILES): COc1cc2cc3ncc(C#N)c(Nc4ccc(F)c(Cl)c4)c3cc2cc1OC
IC50 (EGFR (human) [1]): 680 nM

Structure (SMILES): C[C@@H]1C[C@H]2[C@@H]3CCC4=CC(=O)C=C[C@]4(C)[C@@]3(F)[C@@H](O)C[C@]2(C)[C@@]1(O)C(=O)CO
inhibition [7]: 40% | inhibition [8]: 80%

Structure (SMILES): COC(=O)[C@@]1(Cc2ccc(O)c(CC=C(C)C)c2)OC(=O)C(O)=C1c1ccc(O)cc1
IC50 (MAPK14 [15]): 94000 nM | IC50 (EGFR [16]): > 590000 nM

Structure (SMILES): CN1CC[C@@H](c2c(O)cc(O)c3c(=O)cc(-c4ccccc4Cl)oc23)[C@@H](O)C1
response [17]: 4.2%

Structure (SMILES): COc1cc2ncnc(Nc3ccc(F)c(Cl)c3)c2cc1OCCC1OCCO1
ED50 (EGFR (human) [18]): 50 mg/kg

Structure (SMILES): CC[C@]1(O)C[C@@H]2CN(CCc3c([nH]c4ccccc34)[C@@](C(=O)OC)(c3cc4c(cc3OC)N(C=O)[C@H]3[C@@](O)(C(=O)OC)[C@H](OC(C)=O)[C@]5(CC)C=CCN6CC[C@]43C65)C2)C1 (stereo partly specified)
activity (MAPK14 (murine) [20]): 120% | activity (MAPK14 (murine) [21]): 53.3%

Structure (SMILES): N#C/C(=C\c1ccc2c(c1)OCO2)c1ccccn1
IC50 (EGFR (human) [23]): 1000 nM

Structure (SMILES): O=C(Nc1cc(-c2ccccc2)n[nH]1)c1ccccc1
IC50 (EGFR (human) [27]): > 30000 nM

Structure (SMILES): CN(C)C[C@H]1CCn2c(c(C3=C(c4cn(C)c5ccccc45)C(=O)NC3=O)c3ccccc32)C1
IC50 (EGFR [28]): > 100000 nM

Further lines, with some results ahead:

expression (MAPK14 (human) [2]): 10500 pg/mL and 5700 pg/mL | expression (MAPK14 (human) [3]): 3800 pg/mL and 10400 pg/mL
Structure (SMILES): CC(=NNC(=N)N)c1cc(NC(=O)CCCCCCCCC(=O)Nc2cc(C(C)=NNC(=N)N)cc(C(C)=NNC(=N)N)c2)cc(C(C)=NNC(=N)N)c1

IC50 (EGFR [4]): 290 nM
Structure (SMILES): O=[N+]([O-])c1cccc(Cl)c1-c1nc(-c2ccncc2)c(-c2ccc(Cl)cc2)[nH]1

IC50 (EGFR [5]): 19000 nM
Structure (SMILES): C[C@@]12CCC(=O)c3coc(c31)C(=O)c1cc3c(cc12)C(=O)C=CC3=O

phosphorylation (MAPK14 (human) [6]): 254 cpm and 231 cpm
Structure (SMILES): CCCCC/C=C\C/C=C\C/C=C\C/C=C\CCCC(=O)O

IC50 (EGFR [9]): 75 nM | Ki (EGFR [10]): 16 to 32 nM | Ki (EGFR [11]): 16 to 32 nM
Structure (SMILES): Clc1cccc(Nc2ncnc3ccccc23)c1

IC50 (EGFR (human) [12]): > 10000 nM | IC50 (EGFR (human) [13]): 910 nM
Structure (SMILES): C=CC(=O)Nc1ccc2ncnc(N(C)C)c2c1

activity (CDK2): 95% | IC50 (MAPK14 [14]): 2000 nM
Structure (SMILES): COc1cccc(-c2cc(=O)c3ccccc3o2)c1N
activity (MAPK14 (rat)): 111%

inhibition (EGFR [19]): 105%
Structure (SMILES): Nc1ncc2cc(-c3c(Cl)cccc3Cl)c(NC(=S)NCCCN3CCOCC3)nc2n1

IC50 (EGFR [22]): 23 nM
Structure (SMILES): COc1cc(O)c2c(=O)c(-c3cccc(Cl)c3)cn(CC(N)=O)c2c1

IC50 (MAPK14 (human) [24]): < 25 nM
Structure (SMILES): Cn1c2ccccc2c2c3c(c4c5ccccc5n(CCC#N)c4c21)CNC3=O

IC50 (EGFR [25]): ≥ 10000 nM
Structure (SMILES): COc1cc(Nc2ccnc(Nc3ccc(COc4ccccc4)cc3)n2)cc(OC)c1OC

IC50 (EGFR [26]): 16000 nM
Structure (SMILES): O=C(/C=C/c1ccc(O)c(O)c1)c1ccc(O)cc1O

IC50 (EGFR (murine)): 12700 nM
Structure (SMILES): Cc1ccc(NC(=O)c2ccc(CN3CCN(C)CC3)cc2)cc1Nc1nccc(-c2cccnc2)n1
